Reference: US5292737A, “N,N'-bis(sulfonamido)-2-amino-4-iminonaphthalen-1-ones and N,N'-bis(amido)-2-amino-4-iminonaphthalen-1-ones” (Sphinx Pharmaceuticals Corporation, priority 1992, dated 1994)

Legend:
PKC isoenzyme α = biological target: T1, PKC isoenzyme α (Homo sapiens, UniProt P17252); assay: Protein kinase C inhibition assay, PKC isoenzyme α; type: biochemical; settings: read-out: IC50 PKC α
T1 construct: made in house; host or cells: baculovirus-insect cell expression system
Procedure: (§1) A protein kinase C (PKC) assay is designed to duplicate the in vivo conditions required for protein kinase C function. Therefore, pH, salt and cofactor concentrations are similar to physiologic levels. Either lysine rich histone H1 (H1) or Myelin basic protein (Mbp) are used in the assay as the phosphorylation acceptor-protein because they are readily available and serve as good substrates for protein kinase C. Enzyme was prepared from baculovirus-insect cell expression systems.
(§2) In the screening assay, phosphatidylserine (PS) and DAG were co-sonicated to form unilamellar and multilamellar vesicles. The concentration of lipids in the assay were suboptimal to maximize the detection potential of the assay for inhibitors or activators. Potential effector compounds were added to the assay in dimethylsulfoxide at four concentrations to give final inhibitor concentrations of 1, 10, 50, and 150 μM, respectively.
(§3) The assay was started with the addition of enzyme and stopped after 10 min by the addition of 25% trichloroacetic acid (TCA) and 1.0 mg/ml bovine serum albumin (BSA). The radioactive histone product was retained and washed on glass fiber filters that allow the unreacted P-ATP to pass through. The amount of phosphorylation was determined by measuring radioactivity with a scintillation counter. Controls were included in every assay to measure background activity in the absence of enzyme, activity in the absence of lipids, and the maximum enzyme activity with saturating levels of the activator lipids.
(§4) Results of the protein kinase C assay are shown in Table 4 in columns labeled α, βII, γ, δ, ε, and .zeta. which represent various PKC isoenzymes. Results are show as IC50, which is the concentration of test compound needed to inhibit 50% of the protein kinase C activity in controls.

PKC isoenzyme ζ = biological target: T2, PKC isoenzyme ζ (Homo sapiens, UniProt Q05513); assay: Protein kinase C inhibition assay, PKC isoenzyme ζ; type: biochemical; settings: read-out: IC50 PKC .zeta.
T2 construct: made in house; host or cells: baculovirus-insect cell expression system
T2 sequence (Q05513 1-592): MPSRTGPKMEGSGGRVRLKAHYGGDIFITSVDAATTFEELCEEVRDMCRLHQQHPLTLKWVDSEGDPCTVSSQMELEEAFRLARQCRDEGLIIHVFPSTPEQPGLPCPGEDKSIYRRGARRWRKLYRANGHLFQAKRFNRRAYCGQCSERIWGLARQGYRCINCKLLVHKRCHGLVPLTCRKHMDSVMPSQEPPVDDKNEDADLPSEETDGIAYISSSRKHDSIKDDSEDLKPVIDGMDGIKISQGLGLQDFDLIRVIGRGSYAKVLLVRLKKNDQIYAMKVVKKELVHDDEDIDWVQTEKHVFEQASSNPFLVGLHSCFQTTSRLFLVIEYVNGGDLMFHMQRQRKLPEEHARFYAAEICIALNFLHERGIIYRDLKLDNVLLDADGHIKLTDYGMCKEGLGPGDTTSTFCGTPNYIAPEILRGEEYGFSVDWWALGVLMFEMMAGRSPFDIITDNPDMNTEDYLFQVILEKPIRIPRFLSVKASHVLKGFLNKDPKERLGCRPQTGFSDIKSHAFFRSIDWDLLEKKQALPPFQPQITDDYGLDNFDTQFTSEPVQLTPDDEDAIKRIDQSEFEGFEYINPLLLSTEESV
Procedure: as §1, §2, §3, §4

[1] = test system: MCF-7 human breast tumor cell line; assay: Human Tumor Cell Growth Inhibition (3H-thymidine incorporation); type: cell-based
Procedure: MCF-7 a human breast tumor cell line was obtained from the National Cancer Institute, Frederick, Md. Tumor cells were trypsinized with 0.05% trypsin obtained from GIBCO (Grand Island Biological Co. Laboratories, Grand Island, N.Y.), counted with a hemacytometer and seeded at a concentration of 7,500 cells/well in a 96 well microtiter plate and allowed to attach to the surface overnight. To determine a concentration response, test agents were serially diluted an […] added at 2× final concentration to quadruplicate cultures to bring the total volume of each well to […]. The microtiter plate was then incubated at 37° C., 5% CO2 for 24 hrs with ^3 H-thymidine added at a concentration of 0.5 mCi/well in […] of 0.05% trypsin (GIBCO) was added to each well. Cells were checked microscopically to determine detachment from surfaces, and plates were harvested with a cell harvester (PHD, Cambridge Technology, Inc.). Filter paper corresponding to wells were placed in scintillation vials and counted to determine the amount ^3 H-thymidine incorporated by the cells. Counts per minute (CPM) of quadruplicate cultures were averaged and a percent of control calculated for each test agent concentration by the following formula: [formula]
The IC50 or concentration necessary to inhibit the proliferation of cells by 50% compared to control, of each test agent was determined by plotting % control vs log concentration for each dilution and then linear forecasting the 50% control value onto the X axis on a Quattro Pro computer program. Only regression values with a correlation coefficient greater then 0.9 were considered acceptable.

PKC isoenzyme βII = biological target: T3, PKC isoenzyme βII (Homo sapiens, UniProt P05771); assay: Protein kinase C inhibition assay, PKC isoenzyme βII; type: biochemical; settings: read-out: IC50 PKC βII
T3 construct: made in house; host or cells: baculovirus-insect cell expression system
Procedure: as §1, §2, §3, §4

[2] = test system: normal human epidermal keratinocyte (NHEK) cells; assay: Human Keratinocyte Inhibition (3H TdR Assay); type: cell-based; settings: 24 h incubation, 3H-thymidine
Procedure: Proliferating normal human epidermal keratinocyte (NHEK) cells were obtained in the second passage and grown in keratinocyte growth medium, KGM (Clonetics, Inc.) at 37° C., 5% CO2. The cells were trypsinized (0.25%), centrifuged, counted with a hemocytometer, and seeded at a concentration of 5000 cells in 100 μl well in a 96-well microtiter plate.
After the cells were allowed to attach to the microtiter plate overnight, test agents were titrated to determine the dose response. This was done by adding each test agent dilution in quadruplicate to the plate at 2× final concentration in 100 μl to bring the total volume of each well to 200 μl. Culture media with no test agent added was used as a normal control. Duplicate sets of plates were established.
After twenty-four hours of incubation with test compounds 37° C. and 5% CO2, […] of 0.01 mCi/ml tritiated thymidine (New England Nuclear) was added to each well and allowed to incubate for another 4 hours under the same conditions.
Supernatant was aspirated and discarded and […] of 0.05% trypsin (Gibco) was added to each cell. Cells were checked microscopically to determine detachment from surfaces and then harvested onto glass filters. The filters were then placed in vials to which scintillant was added and counted for one minute each in a scintillation counter.
Determine mean cpm of wells containing test agent (n=4) or KGM control (n=16). Calculate % of control by the formula: [formula]
The IC50, or connection necessary to inhibit 50% of control, of each test agent was determined by plotting % control vs log concentration for each dilution and then linear forecasting the 50% control value onto the X axis on a Quatro Pro computer program. Only regression values with a correlation coefficient greater than 0.9 were considered acceptable.

[3] = Homo sapiens, MCF7, MCF-7, 24 hrs

T3 sequence (P05771 1-673 isoform P05771-2): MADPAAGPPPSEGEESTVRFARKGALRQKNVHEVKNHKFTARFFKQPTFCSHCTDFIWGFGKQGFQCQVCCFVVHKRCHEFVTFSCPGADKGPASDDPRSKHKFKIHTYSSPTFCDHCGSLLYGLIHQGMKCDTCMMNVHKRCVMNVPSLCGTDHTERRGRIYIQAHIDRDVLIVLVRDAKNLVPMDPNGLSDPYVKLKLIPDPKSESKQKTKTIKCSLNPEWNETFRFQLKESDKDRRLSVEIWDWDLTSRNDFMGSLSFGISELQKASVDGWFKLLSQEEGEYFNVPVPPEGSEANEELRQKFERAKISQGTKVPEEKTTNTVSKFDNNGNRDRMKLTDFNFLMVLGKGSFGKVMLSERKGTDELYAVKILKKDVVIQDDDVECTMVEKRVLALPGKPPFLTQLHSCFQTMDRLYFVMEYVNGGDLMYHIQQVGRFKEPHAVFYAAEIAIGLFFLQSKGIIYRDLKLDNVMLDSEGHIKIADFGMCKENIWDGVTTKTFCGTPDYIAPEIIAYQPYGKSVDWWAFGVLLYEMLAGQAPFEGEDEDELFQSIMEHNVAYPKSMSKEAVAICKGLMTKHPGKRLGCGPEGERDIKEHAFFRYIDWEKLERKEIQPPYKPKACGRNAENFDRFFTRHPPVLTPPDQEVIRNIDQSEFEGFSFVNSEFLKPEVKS

SMILES	IC50 (PKC isoenzyme α)	IC50 (PKC isoenzyme ζ)	IC50 ([1]; MCF-7, 24 hrs)	IC50 (PKC isoenzyme βII)	IC50 [2]	IC50 [1, 3]	IC50 ([2]; Homo sapiens)
COc1cc(NS(=O)(=O)c2ccc(N=C3C=C(Nc4ccc(S(=O)(=O)Nc5cc(OC)nc(OC)n5)cc4)C(=O)c4ccccc43)cc2)nc(OC)n1 [Compound 6g]	61 µM	28 µM	21 µM	33 µM	1.4 µM	–	–
COc1ccc(NS(=O)(=O)c2ccc(N=C3C=C(Nc4ccc(S(=O)(=O)Nc5ccc(OC)nn5)cc4)C(=O)c4ccccc43)cc2)nn1 [Compound 3j]	67 µM	> 150 µM	–	45 µM	0.34 µM	16.1 µM	–
Cc1cc(NS(=O)(=O)c2ccc(N=C3C=C(Nc4ccc(S(=O)(=O)Nc5cc(C)nc(C)n5)cc4)C(=O)c4ccccc43)cc2)nc(C)n1 [Compound 6d]	41 µM	–	17.9 µM	39 µM	2.5 µM	–	–
O=C1C(Nc2ccc(S(=O)(=O)Nc3ccccn3)cc2)=CC(=Nc2ccc(S(=O)(=O)Nc3ccccn3)cc2)c2ccccc21 [Compound 6i]	14 µM	–	20 µM	47 µM	7.3 µM	–	–
O=C1C(Nc2ccc(S(=O)(=O)NCc3ccccn3)cc2)=CC(=Nc2ccc(S(=O)(=O)NCc3ccccn3)cc2)c2ccccc21 [Compound 6n]	134 µM	–	0.75 µM	> 150 µM	0.5 µM	–	–
Cc1noc(NS(=O)(=O)c2ccc(N=C3C=C(Nc4ccc(S(=O)(=O)Nc5onc(C)c5C)cc4)C(=O)c4ccccc43)cc2)c1C [Compound 3b]	30 µM	–	–	29 µM	–	–	11.6 µM
COc1cc(NS(=O)(=O)c2ccc(N=C3C=C(Nc4ccc(S(=O)(=O)Nc5cc(OC)cc(OC)c5)cc4)C(=O)c4ccccc43)cc2)cc(OC)c1 [Compound 6af]	113 µM	–	1.2 µM	> 150 µM	–	–	–
Cc1ccnc(NS(=O)(=O)c2ccc(N=C3C=C(Nc4ccc(S(=O)(=O)Nc5nccc(C)n5)cc4)C(=O)c4ccccc43)cc2)n1 [Compound 6f]	24 µM	35 µM	17.7 µM	–	1.4 µM	–	–
Cc1ccnc(NS(=O)(=O)c2ccc(N=C3C=C(Nc4ccc(S(=O)(=O)Nc5nccc(C)n5)cc4)C(=O)c4ccccc43)cc2)n1 [Compound 3f]	28 µM	–	–	23 µM	–	16.6 µM	1.2 µM
Cc1cc(C)nc(NS(=O)(=O)c2ccc(N=C3C=C(Nc4ccc(S(=O)(=O)Nc5nc(C)cc(C)n5)cc4)C(=O)c4ccccc43)cc2)n1 [Compound 3c]	17 µM	–	7.03 µM	7 µM	0.52 µM	–	–
Cc1cc(NS(=O)(=O)c2ccc(N=C3C=C(Nc4ccc(S(=O)(=O)Nc5cc(C)on5)cc4)C(=O)c4ccccc43)cc2)no1 [Compound 6a]	–	–	–	24 µM	1.2 µM	–	–
